Where two headings read alike, the source gives them in different places.
Key:
[1] = target: GST-tagged K-Ras mutant / His-tagged hSOS1 (Homo sapiens, UniProt P01116); assay: HTRF assay, K-Ras mutant / SOS1 interaction; format: binding; settings: read-out: IC50 against mutant Kras
In short: (§1)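 Compounds tested in duplicate from 10 μM down to 0.01 μM, incubated about 10 min or longer with GST-K-Ras/anti-GST-Eu and His-hSOS1/anti-6His-XL665 in ~5 mM HEPES pH 7.4 buffer with ~150 mM NaCl, DTT, BSA and Igepal. IC50 derived from 665/620 nm emission ratio.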

[2] = target: T1, wildtype Kras / hSOS1 (Homo sapiens, UniProt P01116); assay: HTRF assay, wildtype Kras / SOS1 interaction; format: binding; settings: read-out: IC50 against wildtype Kras
T1 construct: made in house; host or cells: E. coli BL21 (DE3)
In short: as §1

[3] = compound nos. 102-196, general methodology of example 5

T1 sequence (P01116 1-188 isoform P01116-2): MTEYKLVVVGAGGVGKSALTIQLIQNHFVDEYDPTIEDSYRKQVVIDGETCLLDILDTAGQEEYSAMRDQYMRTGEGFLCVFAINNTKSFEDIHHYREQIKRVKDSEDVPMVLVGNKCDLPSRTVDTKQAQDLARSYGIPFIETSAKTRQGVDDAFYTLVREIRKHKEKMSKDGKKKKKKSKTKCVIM
Chain of GST-tagged K-Ras mutant / His-tagged hSOS1 (P01116 whole entry G12D, form open): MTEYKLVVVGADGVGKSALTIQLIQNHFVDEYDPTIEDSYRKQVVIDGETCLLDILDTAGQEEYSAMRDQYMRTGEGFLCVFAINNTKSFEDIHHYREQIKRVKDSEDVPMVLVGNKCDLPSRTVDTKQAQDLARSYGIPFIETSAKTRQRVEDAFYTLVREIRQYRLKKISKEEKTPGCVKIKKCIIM

What does the source list for `Nc1nc2c(-c3c(F)cc4c(N5CC6CCC(C5)N6)nc(OCC56CCCN5CCC6)nc4c3F)ccc(F)c2s1` [Compound 680, 4-(4-(3,8-diazabicyclo-[3.2.1]octan-3-yl)-6,8-difluoro-2-((tetrahydro-1H-pyrrolizin-7a(5H)-yl)methoxy)quinazolin-7-yl)-7-fluorobenzo[d]thiazol-2-amine]?
IC50 ([1]; compound nos. 401-703): < 500 nM; IC50 ([2]; compound nos. 401-703): > 500 nM

How did the IC50 ([1]; compound nos. 401-703) turn out when `Cc1ccc2[nH]nc(C#N)c2c1-c1c(Cl)cc2c(N3CC4CCC(C3)N4)nc(OC[C@@]34CCCN3C[C@H](F)C4)nc2c1F` [Compound 632, 4-(4-(3,8-diazabicyclo-[3.2.1]octan-3-yl)-6-chloro-8-fluoro-2-(((2R,7aS)-2-fluorotetrahydro-1H-pyrrol-izin-7a(5H)-yl)methoxy)-quin-azolin-7-yl)-5-methyl-1H-indazole-3-carbonitrile] was run?
Its IC50 is < 500 nM.

What about the IC50 ([2]; compound nos. 401-703) of the same molecule?
Its IC50 is > 500 nM.

What does the source list for `CN1CCC[C@H]1COc1nc(N2CCNCC(F)(F)C2)c2cc(Cl)c(-c3cccc4sc(N)nc34)c(OCc3ccccn3)c2n1` [Compound 155, 4-(6-chloro-4-(6,6-difluoro-1,4-diazepan-1-yl)-2-(((S)-1-methylpyrrolidin-2-yl)-methoxy)-8-(pyridin-2-yl-methoxy)quinazolin-7-yl)-benzo[d]thiazol-2-amine]?
IC50 [1, 3]: > 500 nM; IC50 [2, 3]: > 500 nM

How did the IC50 ([1]; compound nos. 401-703) turn out when `Nc1nc2c(-c3c(Cl)cc4c(N5CC6CCC(C5)N6)nc(OCC5(CN6CCCC6)CC5)nc4c3F)cccc2o1` [Compound 653, 4-(4-(3,8-diazabicyclo-[3.2.1]octan-3-yl)-6-chloro-8-fluoro-2-((1-(pyrrolidin-1-ylmethyl)cyclopropyl)meth-oxy)quinazolin-7-yl)benzo-[d]oxazol-2-amine] was run?
Its IC50 is < 500 nM.

And the IC50 ([2]; compound nos. 401-703)?
Its IC50 is > 500 nM.

For `N#Cc1c(N)sc2cc(F)cc(-c3c(Cl)cc4c(N5CC6CCC(C5)N6)nc(OC[C@@]56CCCN5C[C@H](F)C6)nc4c3F)c12` [Compound 476, 4-(4-(3,8-diazabicyclo-[3.2.1]octan-3-yl)-6-chloro-8-fluoro-2-(((2R,7aS)-2-fluorotetrahydro-1H-pyrrolizin-7a(5H)-yl)meth-oxy)quinazolin-7-yl)-2-amino-6-fluorobenzo[b]-thiophene-3-carbonitrile], which IC50 ([1]; compound nos. 401-703) is on record?
Its IC50 is < 500 nM.

And the IC50 ([2]; compound nos. 401-703)?
The IC50 was < 500 nM.

With `Cc1ccnc(C(C)C)c1-n1c(=O)nc(N2CCNCC(F)(F)C2)c2cc(F)c(-c3cccc4sc(N)nc34)nc21` [Compound 111, 7-(2-aminobenzo[d]thiazol-4-yl)-4-(6,6-difluoro-1,4-diazepan-1-yl)-6-fluoro-1-(2-isopropyl-4-methylpyr-idin-3-yl)pyrido[2,3-d]pyr-imidin-2(1H)-one] as the molecule, how does the IC50 [1, 3] read?
The IC50 was > 500 nM.

And the IC50 [2, 3]?
The IC50 was > 500 nM.

Which results are given for `CN1CCC[C@H]1COc1nc(N2CCOCC(F)(F)C2)c2cc(Cl)c(-c3ccc(F)c4sc(N)nc34)c(F)c2n1` [Compound 106, 4-(6-chloro-4-(6,6-difluoro-1,4-oxazepan-4-yl)-8-fluoro-2-(((S)-1-methylpyrrolidin-2-yl)methoxy)quinazolin-7-yl)-7-fluorobenzo[d]thiazol-2-amine]?
IC50 [1, 3]: < 500 nM; IC50 [2, 3]: < 500 nM

Which results are given for `Nc1cc(-c2ccc3c(N4CC5CCC(C4)N5)nc(OCC45CCCN4CCC5)nc3c2F)c2c(Cl)cccc2n1` [Compound 498, 4-(4-(3,8-diazabicyclo-[3.2.1]octan-3-yl)-8-fluoro-2-((tetrahydro-1H-pyrrol-izin-7a(5H)-yl)methoxy)-quinazolin-7-yl)-5-chloro-quinolin-2-amine]?
IC50 ([1]; compound nos. 401-703): > 500 nM; IC50 ([2]; compound nos. 401-703): < 500 nM

`CN1CCC[C@H]1COc1nc(N2CCCC(N3CC(N)C3)CC2)c2cc(Cl)c(-c3cccc4sc(N)nc34)c(F)c2n1` (stereo partly drawn) [Compound 441, 4-(4-(4-(3-aminoazetidin-1-yl)azepan-1-yl)-6-chloro-8-fluoro-2-(((S)-1-methyl-pyrrolidin-2-yl)methoxy)-quinazolin-7-yl)benzo[d]-thiazol-2-amine] was tested. Which IC50 ([1]; compound nos. 401-703) did it give?
The IC50 was > 500 nM.

What about the IC50 ([2]; compound nos. 401-703) of the same molecule?
The IC50 was < 500 nM.

Source: patent US20240254129A1, “HETEROCYCLIC COMPOUNDS AND USES THEREOF” (Kumquat Biosciences Inc., priority 2021, published 2024)
